This test deals with MAPK14 (sprague-dawley rat). The test is described as follows: IL-1 beta-induced P38 Phosphorylation. The following applies: astrocyte.

pIC50: −log10 of the molar value.

In turn, `CC(=O)N[C@@H](CS)C(=O)O` showed a pIC50 of 3.30. `CC(C)(C)/[N+]([O-])=C/c1ccccc1`: the pIC50 is 3.30.

What is called pIC50 is the IC50 on a negative log10 scale, so that one unit is a factor of ten. Low values mean a high IC50, high ones a low IC50.
